From publication PMC7536072, “Molecular and functional characterization of somatostatin-type signalling in a deuterostome invertebrate” (Open Biology, 2020)
“Also recorded” adds a separate entry of the source. Bridges are numbered along the chain shown (N, C = ends). Where no end group is shown, it is not given here.

What was measured:
[1] = test system: cardiac stomach preparations from A. rubens; assay: in vitro relaxation of cardiac stomach preparations; set-up: species or system Asterias rubens
Experimental: (§1) Synthetic ArSS2 ([…], with a disulfide bridge between the cysteine residues) was custom synthesized (Peptide Protein Research Ltd, Fareham, UK) to enable testing of its pharmacological effects on in vitro preparations of organs/muscles from A. rubens. ArSS2 was tested for its in vitro effects on the contractility of tube foot, apical muscle and cardiac stomach preparations from at least six different specimens of A. rubens. Individual tube foot preparations were dissected from starfish arms with their corresponding ampulla intact. Then cotton ligatures were tied around the ambulacral body wall and the tube foot disc and then the external epithelium of the tube foot was scraped off using a blunt scalpel blade to facilitate penetration of peptides when tested in vitro, as described previously. Apical muscle preparations were dissected from the aboral body wall with approximately 1 cm strips of apical muscle tied at each end with cotton ligatures. Cardiac stomach preparations were dissected as described previously and then were tied at the aboral side of the cardiac stomach and around the oesophagus with cotton ligatures. The dissected preparations were tied to a fixed metal hook orally and to a high-grade isotonic transducer (MLT0015; ADInstruments Ltd; Oxford, UK) aborally, suspended in a 20 ml aerated organ bath containing artificial seawater at approximately 11°C. The transducer was connected via a bridge amplifier (FE221 Bridge Amp, ADInstruments Ltd, Oxford, UK) to data acquisition hardware (PowerLab 2/36, ADInstruments Ltd, Oxford, UK). Data collected from PowerLab were visualized as traces and analysed using LabChart (v. 8.0.7) software installed on a laptop computer (Lenovo E540, Windows 7 Professional).
(§2) To examine the effects of ArSS2 on tube foot and cardiac stomach preparations, 10^−6 M acetylcholine (ACh) or artificial seawater (ASW) containing 30 mM added KCl was used to induce contraction of these preparations, respectively. Once a stable baseline contracted state was achieved, synthetic ArSS2 was added into the organ bath to sequentially achieve final concentrations in the range of 10^−10 to 10^−6 M. For these experiments, the contracting effect of 10^−6 M ACh or ASW containing 30 mM added KCl was defined as 100% and the relaxing effects of ArSS2 were then calculated as a percentage reversal of the 100% contracted state.
Experiments were performed where the effects of ArSS2, S2 and asterotocin (at 10^−7 and 10^−6 M) on cardiac stomach preparations (n = 6) were compared. For these experiments, the effect of 10^−7 or 10^−6 M S2 was defined as 100% and the effect of asterotocin or ArSS2 was calculated as a % of the effect of S2. To determine if there were significant differences in magnitude of the relaxing effects of the three peptides on cardiac stomach preparations, data were analysed statistically using a two-tailed Student's t-test in Prism 6.

[2] = test system: ArSSR2; assay: GFP-aequorin luminescence receptor activation assay, CHO-K1 cells, ArSSR2 + Gα16; type: cell-based, Asterias rubens
[3] = test system: tube foot preparations from A. rubens; assay: in vitro relaxation of tube foot preparations; set-up: species or system Asterias rubens
Experimental: Synthetic ArSS2 ([…], with a disulfide bridge between the cysteine residues) was custom synthesized (Peptide Protein Research Ltd, Fareham, UK) to enable testing of its pharmacological effects on in vitro preparations of organs/muscles from A. rubens. ArSS2 was tested for its in vitro effects on the contractility of tube foot, apical muscle and cardiac stomach preparations from at least six different specimens of A. rubens. Individual tube foot preparations were dissected from starfish arms with their corresponding ampulla intact. […] Data collected from PowerLab were visualized as traces and analysed using LabChart (v. 8.0.7) software installed on a laptop computer (Lenovo E540, Windows 7 Professional). […]
as §2

[4] = test system: ArSSR1; assay: GFP-aequorin luminescence receptor activation assay, CHO-K1 cells, ArSSR1 + Gα16; type: cell-based, Asterias rubens
[5] = test system: apical muscle preparations from A. rubens; assay: in vitro contractility of apical muscle preparations; set-up: species or system Asterias rubens; conditions: data not shown
Experimental: as §1, with “The dissected preparations were tied to a fixed metal hook orally and to a high-grade isotonic transducer (MLT0015; ADInstruments Ltd; Oxford, UK) aborally, suspended in a 20 ml aerated organ bath containing artificial seawater at approximately 11°C. The transducer was connected via a bridge amplifier (FE221 Bridge Amp, ADInstruments Ltd, Oxford, UK) to data acquisition hardware (PowerLab 2/36, ADInstruments Ltd, Oxford, UK).” left out, “Professional). […]” for “Professional).”

[6] = 10^−7 M, KCl-contracted, mean, n = 6

Sequence: RAKNARCMADFWKGRGLVDC (disulfide 7-20 (inferred)) [ArSS2]
- extent of relaxation of cardiac stomach preparations ([1]; 10^−6 M): maximal relaxation
- magnitude of cardiac stomach relaxing action compared with S2 ([1]; 10^−6 M, KCl-contracted, n = 6): not significantly different to the effect S2
- reversal of KCl-induced cardiac stomach contraction ([1]; 10^−6 M, contraction induced by 30 mM KCl = 100%, artificial seawater, approximately 11°C, mean ± s.e.m., n = 10): 60 ± 18%
- magnitude of cardiac stomach relaxing action relative to S2 [1, 6]: 1.5 times the effect of S2
- magnitude of cardiac stomach relaxing action relative to asterotocin [1, 6]: 44 % of the effect of asterotocin
- relaxing effect compared with S2 ([1]; 10^−7 M, two-tailed Student's t-test p = 0.0303, n = 6): significantly larger than the effect of S2
- relaxation of cardiac stomach preparations ([1]; pre-contracted with 30 mM KCl, tested 10^−10 to 10^−6 M): dose-dependent relaxation of cardiac stomach preparations at concentrations between 10^−9 and 10^−6 M
- EC50 ([2]; ArSSR2 + Gα16 in CHO-K1 cells expressing GFP-aequorin (G5A), peptide 10^−21 to 10^−4 M, luminescence over 35 s, mean of at least three independent experiments, three repeats each, read-out: half-maximal response concentration (EC50)): 4.2 pM
- mean total luminescence response relative to background ([2]; ArSSR2, 10^−5 M, background detected with assay media or with ArSS1): 166 303 times the background luminescence
- luminescence compared with control ([2]; ArSSR2, 10^−5 M, vs BSA media (control) and, for ArSS2, vs ArSS1, one-way ANOVA, Bonferroni): significantly higher than the luminescence in cells exposed to ArSS1 or BSA media (control)
- triggering of luminescence ([2]; ArSSR2, 10^−21 to 10^−4 M): caused dose-dependent luminescence
- reversal of ACh-induced tube foot contraction ([3]; 10^−6 M, contraction induced by 10^−6 M acetylcholine = 100%, artificial seawater, approximately 11°C, mean ± s.e.m., n = 6): 91% ± 13%
- relaxation of tube foot preparations ([3]; pre-contracted with 10^−6 M ACh, tested 10^−10 to 10^−6 M): dose-dependent relaxation of tube foot preparations at concentrations between 10^−9 and 10^−6 M
- EC50 ([4]; ArSSR1 + Gα16 in CHO-K1 cells expressing GFP-aequorin (G5A), peptide 10^−21 to 10^−4 M, luminescence over 35 s, mean of at least three independent experiments, three repeats each, read-out: half-maximal response concentration (EC50)): 88 pM
- luminescence compared with control ([4]; ArSSR1, 10^−5 M, vs BSA media (control) and, for ArSS2, vs ArSS1, one-way ANOVA, Bonferroni): significantly higher than the luminescence in cells exposed to ArSS1 or BSA media (control)
- triggering of luminescence ([4]; ArSSR1, 10^−21 to 10^−4 M): caused dose-dependent luminescence
- efficacy compared between receptors ([4]; ArSSR1 and ArSSR2 vs ArSSR3, 10^−5 M): higher for ArSSR1 and ArSSR2 than for ArSSR3
- effect on contractility of apical muscle preparations [5]: did not cause relaxation; also recorded: no observable effects
